Measured values taken from US6784167B2, “17-beta-hydroxysteroid dehydrogenase-II inhibitors” (Bayer Pharmaceuticals Corporation, priority 2000, dated 2004).
Like-named read-outs stand apart in the source and are kept apart here.

What was measured:
17-Beta HSD II Enzyme = target: T1, 17-Beta HSD II Enzyme (Homo sapiens, UniProt P37059); experiment: Primary assay: inhibition of 17-Beta HSD II enzyme (estradiol/NAD, PMS:MTS colorimetric readout at 490 nm); type: biochemical; settings: Table 7, baculovirus-expressed recombinant HSD II, estradiol substrate
T1 construct: made in house; host or cells: insect cells (baculovirus)
T1 sequence (P37059 1-387): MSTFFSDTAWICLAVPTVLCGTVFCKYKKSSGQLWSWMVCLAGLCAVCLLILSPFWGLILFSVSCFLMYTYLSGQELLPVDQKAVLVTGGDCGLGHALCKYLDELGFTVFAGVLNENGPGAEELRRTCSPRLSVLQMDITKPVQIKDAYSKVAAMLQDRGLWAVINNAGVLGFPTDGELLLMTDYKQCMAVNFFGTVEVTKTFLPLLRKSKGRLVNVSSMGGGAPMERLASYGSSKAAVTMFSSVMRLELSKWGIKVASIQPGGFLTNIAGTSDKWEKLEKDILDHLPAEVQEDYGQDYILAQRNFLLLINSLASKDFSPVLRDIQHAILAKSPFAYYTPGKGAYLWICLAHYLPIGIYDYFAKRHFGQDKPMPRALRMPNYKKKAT
Protocol: HSD II protein purification: The method for purification of baculovirus-expressed HSD II was standardized as follows. The insect cell pellet containing recombinant HSD II was lysed in 2.5 volumes of lysis buffer (40 mM Tris, pH 7.5, 1 mM EDTA, 2 mM DTT, 10 uM NAD) containing 500 uM AEBSF, 10 ug/ml aprotinin, 1 uM pepstatin A, and 100 uM leupeptin. The pellet was nutated for 30 min in this buffer. Subsequently, the pellet was homogenized with 15 strokes using a glass and teflon potter. The volume was doubled with a 2× sucrose/NaCl solution (500 mM sucrose, 300 mM NaCl in lysis buffer). After centrifugation at 10,000×g for 30 min, the supernatant was decanted and stored at −20° C. The pellet was resuspended in 2.5 volumes of lysis buffer containing 250 mM sucrose and 150 mM NaCl. Homogenization was repeated (15 strokes) and the suspension was centrifuged again and the decanted supernatant was stored at −20° C. The pellet was resuspended with 2 times the original pellet volume in lysis buffer containing 150 mM NaCl and 1% Triton X-100. The suspension was nutated for 20 min and then homogenized with 5 strokes. Subsequently, the suspension was centrifuged at 30,000×g for 1 h and supernatant was decanted and poured into a chromatographic column. Sephadex G-25 (fine) was added in small amounts, allowing approximately 15 min after each addition for complete swelling. Sephadex addition was continued until all liquid was absorbed. The protein was eluted with 1 void volume of lysis buffer and eluate monitored at 280 nm optical density. The chromatographic procedure was repeated and an equal volume of glycerol was added to the final eluate.
Primary assay: After titration, the HSD II prep, generated with the standard protocol, was diluted to the appropriate concentration (generally 1/15 dilution). 55 μl of assay buffer (50 mM Hepes, pH 8.0) was added to all wells of a 96 well plate. 5 μl of 5% DMSO were added to wells A1-C1, A2-C2, F1-H1, and F2-H2. A 10 μl aliquot of a 10 mM solution in DMSO of each compound was diluted in 190 μl of assay buffer. The plate with these compound dilutions was then mixed for 15 min on a shaker and a 5 μl aliquot from each well was added to the […]. This was followed by 10 μl of HSD II enzyme ( 1/15 dilution)/estradiol mix in assay buffer containing 1% Triton X-100. The estradiol […] from a 20 mM estradiol DMSO stock solution, which was diluted 1/20 (50 μl/ml) in 50 mM Hepes buffer containing 1% Triton X-100. All wells, except F1-H1 and F2-H2, also received 10 μl of 25 mg/ml NAD (SIGMA) in 100 mM Hepes, pH 9. The blank wells F1-H1 and F2-H2 received 10 μl of NAD buffer. 20 μl of PMS:MTS solution (100 μl PMS into 1800 μl MTS, Promega) was added to all wells. The plate was covered with aluminum foil and incubated at room temperature for 1.5 h. The plate was analyzed at 490 nm on a Hewlett Pachard 8453 spectrophotometer and results were calculated.

[1] = read-out: IC50 values ≧2 μM and <10 μM

Row | IC50 (17-Beta HSD II Enzyme) [nM] | melting point | IC50 (17-Beta HSD II Enzyme; [1]) [nM] | SMILES
1 | – | – | 2000 to 10000 | CN(C)c1ccc([C@H]2CC(=O)N(C)[C@H]2[C@H](O)c2ccc(-c3ccccc3)s2)cc1 (relative stereo) [Example 19, (±)-(4R*,5R*)-5-[(1S*)-hydroxy(5-phenyl(2-thienyl))methyl]-1-methyl-4-[4-(dimethylamino)phenyl]pyrrolidin-2-one]
2 | < 500 | 210 °C | – | CN1C(=O)CC(c2ccccc2)C1C(O)c1ccc(-c2cccnc2)s1 (racemic) [Example 78]
3 | – | 173 °C | 2000 to 10000 | CN(C)c1ccc(-c2ccc([C@@H](O)[C@H]3[C@@H](c4ccccc4)CC(=O)N3C)s2)cc1F (racemic) [Example 28]
4 | < 500 | 138 to 140 °C | – | CN1C(=O)C[C@H](c2ccccc2)[C@@H]1[C@H](O)c1ccc(-c2ccc[n+]([O-])c2)s1 [Example 26, (4R,5R)-5-{(S)-hydroxy[5-(1-oxido-3-pyridinyl)-2-thienyl]methyl}-1-methyl-4-phenyl 2-pyrrolidinone]
5 | < 500 | – | – | CN1C(=O)C[C@H](c2ccccc2)[C@@H]1[C@H](O)c1ccc(-c2cccnc2)s1 [Example 148]
6 | < 500 | – | – | CN1C(=O)C[C@H](c2ccccc2)[C@@H]1[C@H](O)c1ccc(-c2ccc(F)cc2)s1 [Example 146]
7 | < 500 | 146 °C | – | CN1C(=O)CC(c2ccccc2)C1C(O)c1ccc(-c2ccc(C#N)cc2)s1 (centres unmarked) [Example 80]
8 | < 500 | 219 to 220 °C (dec.) | – | CN1C(=O)C[C@H](c2ccccc2F)[C@@H]1[C@H](O)c1ccc(-c2ccccc2)s1 (racemic) [Example 83]
9 | – | – | 2000 to 10000 | CN1C(=O)C[C@H](c2ccc(-c3ccc(F)cc3)cc2)[C@@H]1[C@H](O)c1ccc(-c2ccccc2)s1 (relative stereo) [Example 22, (±)-(4R*,5R*)-5-[(1S*)hydroxy(5-phenyl(2-thienyl))-methyl]-4-[4-(4-fluorophenyl)phenyl]-1-methylpyrrolidin-2-one]
10 | < 500 | – | – | CN1C(=O)C[C@H](c2ccc(O)cc2)[C@@H]1[C@H](O)c1ccc(-c2ccccc2)s1 (relative stereo) [Example 20, (±)-(4R*,5R*)-5-[(1S*)-hydroxy(5-phenyl(2-thienyl))methyl]-1-methyl-4-[4-hydroxyphenyl]pyrrolidin-2-one]
11 | < 500 | – | – | CN1C(=O)C[C@H](c2ccccc2)[C@@H]1[C@@H](O)c1ccc(-c2ccccc2)s1 [Example 11, (4R,5R)-5-[(1R)-hydroxy(5-phenyl(2-thienyl))methyl]-1-methyl-4-phenylpyrrolidin-2-one]
12 | – | – | 2000 to 10000 | CN1C(=O)C[C@H](c2ccc(CO)cc2)[C@@H]1[C@H](O)c1ccc(-c2ccccc2)s1 (relative stereo) [Example 21, (±)-(4R*,5R*)-5-[(1S*)hydroxy(5-phenyl(2-thienyl))methyl]-4-[4-(hydroxymethyl)phenyl]-1-methylpyrrolidin-2-one]
13 | < 500 | – | – | CN1C(=O)C[C@H](c2ccccc2)[C@@H]1[C@H](O)c1ccc(-c2cccnc2)s1 (racemic) [Example 79]
14 | < 500 | – | – | CN1C(=O)CC(c2ccccc2)C1C(O)c1ccc(-c2ccc(Cl)cc2)s1 (centres unmarked) [Example 51]

More lines, now with the values behind:

Row | SMILES | IC50 (17-Beta HSD II Enzyme) [nM] | melting point | IC50 (17-Beta HSD II Enzyme; [1]) [nM]
15 | CN1C(=O)C[C@H](c2ccccc2)[C@@H]1[C@H](O)c1ccc(-c2ccccn2)s1 [Example 147] | < 500 | – | –
16 | CN1C(=O)CC(c2ccccc2)C1C(O)c1ccc(S(=O)(=O)c2ccc(Cl)cc2)s1 (racemic) [Example 62] | < 500 | 207 to 208 °C | –
17 | CN1C(=O)CC(c2ccccc2)C1C(O)c1ccc(Cl)c(Cl)c1 (centres unmarked) [Example 99] | < 500 | 193 to 195 °C | –
18 | CN1C(=O)C[C@H](c2ccccc2F)[C@@H]1[C@H](O)c1cccs1 [Example 150] | < 500 | 212 °C | –
19 | CN1C(=O)CC(c2ccccc2)C1C(O)c1ccc(-c2ccccn2)s1 (centres unmarked) [Example 50] | < 500 | 234 °C (dec.) | –
20 | CN1C(=O)C[C@H](c2ccccc2)[C@@H]1[C@H](O)c1cccc(-c2ccccc2)c1 (racemic) [Example 98] | < 500 | 173 to 176 °C | –
21 | CN1C(=O)C[C@H](c2ccccc2)[C@@H]1[C@H](O)c1csc2ccccc12 (racemic) [Example 54] | – | > 210 °C | 2000 to 10000
22 | COc1ccccc1[C@H]1CC(=O)N(C)[C@H]1[C@H](O)c1ccc(S(=O)(=O)c2ccccc2)s1 (racemic) [Example 91] | < 500 | 160 °C | –
23 | CN1C(=O)CC(c2ccccc2)C1C(O)Cc1nc(-c2ccccc2)cs1 (centres unmarked) [Example 138] | – | 189 °C | 2000 to 10000
24 | CN1C(=O)CC(c2ccccc2)C1C(O)c1ccc(-c2cccc(F)c2)o1 (centres unmarked) [Example 122] | – | 180 °C | 2000 to 10000
25 | CN1C(=O)C[C@H](c2ccccc2F)[C@@H]1[C@H](O)c1cccc(Cl)c1 [Example 154] | < 500 | 184 to 185 °C | –
26 | CSC(c1cc2ccccc2[nH]1)[C@H]1[C@@H](c2ccccc2)CC(=O)N1C (relative stereo) [Example 10] | < 500 | – | –
27 | CN1C(=S)C[C@H](c2ccccc2)[C@@H]1[C@H](O)c1cccs1 (relative stereo) [Example 1, (±)-(4R*,5R*)-5-((1S*)-hydroxy-2-thienylmethyl)-1-methyl-4-phenylpyrrolidin-2-thione] | – | – | 2000 to 10000
28 | CN1C(=O)C[C@H](c2ccccc2)[C@@H]1[C@H](O)c1ccc(-c2ccc(C(=O)O)cc2)o1 (racemic) [Example 118] | – | 194 °C | 2000 to 10000
29 | Cc1sc([C@@H](O)[C@H]2[C@@H](c3ccccc3)CC(=O)N2C)cc1-c1ccccc1 (racemic) [Example 38] | < 500 | 78 to 82 °C | –
30 | CN1C(=O)C[C@H](c2ccccc2)[C@@H]1[C@H](O)C#CCN1CCS(=O)(=O)CC1 (racemic) [Example 130] | – | 217 to 218 °C | 2000 to 10000
31 | CN1C(=O)CC(c2ccccc2)C1C(O)c1ccc(S(=O)(=O)N2CCOCC2)s1 (centres unmarked) [Example 36] | < 500 | 214 to 218 °C | –
32 | CN1C(=O)CC(c2ccccc2)C1C(O)c1ccc(-c2c(F)cccc2F)s1 (centres unmarked) [Example 30] | < 500 | – | –
33 | CN1C(=O)C[C@H](c2ccccc2)[C@@H]1[C@H](O)c1ccc(S(=O)(=O)c2ccccc2)s1 [Example 149] | < 500 | – | –
34 | CN1C(=O)C[C@H](c2ccccc2)[C@@H]1[C@H](O)C#Cc1ccccc1 (relative stereo) [Example 8, (±)-5-((1R*)-1-hydroxy-3-phenylprop-2-ynyl)(4R*,5R*)-1-methyl-4-phenylpyrrolidin-2-one] | < 500 | – | –
35 | CN1C(=O)C[C@H](c2ccccc2)[C@@H]1[C@H](O)c1ccc(-c2cccc(NC(=O)Nc3ccc(F)cc3)c2)s1 (relative stereo) [Example 25, (±)-(4R*,5R*)-5-{(1S*)[5-(3-{[(4-fluorophenyl)amino]carbonylamino}phenyl)(2-thienyl)]hydroxymethyl}-1-methyl-4-phenylpyrrolidin-2-one] | – | – | 2000 to 10000
36 | CN1C(=O)C[C@H](c2ccccc2)[C@@H]1COc1cccc(Cl)c1 (relative stereo) [Example 2, (±)-(4R*,5R*)-5-[(3-chlorophenoxy)methyl]-1-methyl-4-phenylpyrrolidin-2-one] | – | – | 2000 to 10000
37 | CN1C(=O)CC(c2ccccc2)C1C(O)C#Cc1ccccc1F (centres unmarked) [Example 127] | < 500 | – | –
